Test results: patent US20180311236A1 (AB SCIENCE, priority 2015, published 2018)

Key:
C57BL/6 mice = assay: Mortality after MPTP intoxication; assay type: in vivo, mouse; details: 24 hours after treatment by the MPTP (4 injections of 20 mg/kg at 2-hour intervals)
Excerpt: Brain samples were collected after mice anesthesia and sacrifice.

[1] = system: Tyrosine Hydroxylase in total brain protein extract; assay: MPTP mouse model of Parkinson's disease: tyrosine hydroxylase western blotting; details: MPTP alone (4 × 20 mg/kg, solvent-treated), control = 100
Description: Each treated group included 10 animals for the MPTP intoxicated groups and 5 animals for the controls.
(§1) C57BL/6J mice are intoxicated with MPTP using an acute protocol, as described hereafter. On the day of MPTP exposure each mouse received 4 injections of MPTP solution (20 mg/kg) at 2-hour intervals for 1 day.
Before brain extraction mice were perfused with 0.9% NaCl 2.6 mM EDTA solution.
And the right brain was immediately frozen in nitrogen liquid for protein analysis. The proteins were extracted with the homogenizer ultra turrax IKA-T10 basic system and quantified using the BCA test (bicinchoninic acid assay).
30 μg of total brain protein were used for western blot analysis using 1:1000 dilution anti-tyrosine hydroxylase rabbit polyclonal antibody (Cat #AB152, Millipore) followed by 1:10000 horseradish peroxidase-conjugated anti-rabbit antibody (Jakson ImmunoResearch). Antibody to actin (Cat #A5316, Sigma Aldrich) were used as loading control followed by 1:10000 horseradish peroxidase-conjugated anti-mouse antibody (Jakson ImmunoResearch). Immunoreactive bands were detected using enhanced chemiluminescent reagents (GE Healthcare, Amersham, UK). Signal intensity was calculated using the Image J software.

[2] = system: tyrosine hydroxylase in coronal brain sections; assay: MPTP mouse model of Parkinson's disease: tyrosine hydroxylase immunohistochemistry; assay type: in vivo; details: immunohistochemistry on 5 μm-thick coronal sections; MPTP + masitinib 2 × 5 mg/kg
[3] = system: Ba/F3 cells expressing PDGFR-α; details: read-out: IC50, PDGF-BB-stimulated proliferation and PDGFR-α tyrosine phosphorylation; cited from earlier work
[4] = system: Monoamine oxidase activity from total brain protein extract; assay: MPTP mouse model: monoamine oxidase fluorometric assay; details: MPTP + masitinib 2 × 5 mg/kg, control = 100, MPTP = 108
Description: (§2) Each treated group included 10 animals for the MPTP intoxicated groups and 5 animals for the controls. The loss of tyrosine hydroxylase expression, indicative of dopaminergic neuron destruction, was analyzed by western blotting, immunohistochemistry and ELISA assay.
This stock solution was defrosted before treatment of mice. The mice were treated orally by gavage with 0.1 ml corresponding to 25 mg/kg in a 24 g mouse.
as §1
(§3) Dosing was done 2 times per day at 6-hour interval starting day 7 before intoxication and stopping 7 days after MPTP administration. […] Before brain extraction mice were perfused with 0.9% NaCl 2.6 mM EDTA solution.
(§4) The treatment started 7 days before MPTP administration and continued 7 days after.
(§5) After mouse sacrifice and dissection, the left brain was submerged in 4% paraformaldehyde in PBS (phosphate buffered saline) solution for paraffin embedding and then cut into 5 μM-thick coronal section. And the right brain was immediately frozen in nitrogen liquid for protein analysis. The proteins were extracted with the homogenizer ultra turrax IKA-T10 basic system and quantified using the BCA test (bicinchoninic acid assay).

[5] = system: human cord blood mast cells; details: cited from earlier work
[6] = system: Tyrosine Hydroxylase in total brain protein extract; assay: MPTP mouse model of Parkinson's disease: tyrosine hydroxylase ELISA assay
Description: as §2
The mice were treated orally by gavage with 0.1 ml corresponding to 25 mg/kg in a 24 g mouse.
as §1, §3, §4, §5
The microliter plate wells were coated overnight at 4° C. with 5μg of total brain protein extract. […]

SMILES	mortality (C57BL/6 mice)	Relative average expression of tyrosine hydroxylase [1]	in situ staining of tyrosine hydroxylase [2]	IC50 [3] [nM]	Monoamine oxidase fluorometric assay [4]	FcϵRI-mediated degranulation [5]	Mean expression of tyrosine hydroxylase ([6]; MPTP + masitinib 2 × 5 mg/kg per os, day -7 to day 7, control = 0.275, MPTP = 0.175, 5 mg/kg)	Mean expression of tyrosine hydroxylase ([6]; masitinib alone 2 × 30 mg/kg per os, no MPTP, control = 0.275, 30 mg/kg)
CN1CC=C(c2ccccc2)CC1 [MPTP, 1-methyl-4-phenyl-1,2,3,6-tetrahydropyridine]	No mortality	77						
Cc1ccc(NC(=O)c2ccc(CN3CCN(C)CC3)cc2)cc1Nc1nc(-c2cccnc2)cs1 [Masitinib, 4-(4-methylpiperazin-l-ylmethyl)-N-[4-methyl-3-(4-pyridin-3ylthiazol-2-ylamino)phenyl]benzamide]			positive effect	300 ± 5	maintained	inhibition	significant attenuation	did not modify significantly
